Where two headings read alike, the source gives them in different places.
What was measured:
[1] = tested on: depletion of serotonin (5HT) induced by H75/12; test: Test using H75/12: inhibition of serotonin depletion; format: in vivo; conditions: Mus musculus, ip, 30 min before H75/12, mice, read-out: Percentage of inhibition of depletion on 5 HT; for inhibition at 40 mg/kg: 40 mg/kg I.P.; for inhibition at 20 mg/kg: 20 mg/kg I.P.; for inhibition at 30 mg/kg: 30 mg/kg I.P.; for inhibition at 10 mg/kg: 10 mg/kg I.P.
Description: In the experiments carried out, the H 75/12 was administered on two occasions with an interval of two hours between them, in a proportion of 100mg/kg by intraperitoneal method.
In Table I hereafter, the first figure represents the first dose in mg/kg by intraperitoneal method, of the product according to the invention, administered thirty minutes before the injection of H75/12, and the second figure represents the percentage of inhibition of the depletion of serotonin in relation to a reference batch which has received only H75/12. The compounds signified by Compound Nos. 1-14 in Table 1 are indicated hereafter in Table II.

[2] = tested on: hypotension (H), tachycardia (T), and positive inotropism (I^+) induced by isoprenaline; test: Cardiovascular parameters: modification of isoprenaline-induced hypotension, tachycardia and positive inotropism; format: in vivo, chloralised dogs; conditions: Canis lupus familiaris
Description: Experiments were carried out on chloralised dogs: these consisted of measuring, as a percentage relative to the […] of reference animals, the modifications caused by the products of the invention, administered in a proportion of 5mg/kg by intravenous route, on hypotension (H), tachycardia (T), and positive inotropism (I^+) induced by isoprenaline previously administered in a proportion of 0.5μg/kg by intravenous route.

mice = test: Supramaximal electrical shock test (corneal electrodes); format: in vivo; conditions: Mus musculus, po, P.O., dose which protects 50% of the animals from tonic tension, read-out: ED 50 ELECTROSHOCK
[3] = LD50 oral, acute toxicity; conditions: mouse, in vivo; oral administration; mice
[4] = 5 mg/kg intravenous, isoprenaline 0.5 μg/kg intravenous, chloralised dogs, read-out: Cardiovascular parameters, H (hypotension)
[5] = 5 mg/kg intravenous, isoprenaline 0.5 μg/kg intravenous, chloralised dogs, read-out: Cardiovascular parameters, I^+ (positive inotropism)
[6] = 5 mg/kg intravenous, isoprenaline 0.5 μg/kg intravenous, chloralised dogs, read-out: Cardiovascular parameters, T (tachycardia)

`NC1CCCC(Oc2ccc(Cl)cc2)C1O` (stereo not shown) [compound 13] showed an inhibition at 40 mg/kg [1] of 62%, a change in vivo at 5 mg/kg [2, 4] of 0% and a change in vivo at 5 mg/kg [2, 5] of 0%. It also gave a change in vivo at 5 mg/kg [2, 6] of 0%.

In the case of `CC(C)NC1CCCC(Oc2ccc(F)cc2)C1O` (stereo not shown) [compound 8], the inhibition at 40 mg/kg [1] is reported as 59%, the ED50 (mice) is reported as 200 mg/kg and the change in vivo at 5 mg/kg [2, 4] is reported as 0%. For the same compound, the change in vivo at 5 mg/kg [2, 5] was -27% and the change in vivo at 5 mg/kg [2, 6] was -10%.

In the case of `CN(C)C1CCCC(Oc2ccc(Cl)cc2)C1O` (stereo not shown) [compound 14], the inhibition at 40 mg/kg [1] is reported as 38%, the change in vivo at 5 mg/kg [2, 4] is reported as 0% and the change in vivo at 5 mg/kg [2, 5] is reported as 0%. It also gave a change in vivo at 5 mg/kg [2, 6] of 0%.

`CN(C)C1CCCC(Oc2ccc(F)cc2)C1O` (stereo not shown) [compound 9] showed an inhibition at 20 mg/kg [1] of 18%, an ED50 (mice) of 250 mg/kg and a change in vivo at 5 mg/kg [2, 4] of 30%. For the same compound, the change in vivo at 5 mg/kg [2, 5] was 25% and the change in vivo at 5 mg/kg [2, 6] was 9%.

In the case of `CC(C)NC1CCCC(Oc2cccc(C(F)(F)F)c2)C1O` (stereo not shown) [compound 6], the inhibition at 40 mg/kg [1] is reported as 74%, the ED50 (mice) is reported as less than 100 mg/kg and the change in vivo at 5 mg/kg [2, 4] is reported as -18%. The change in vivo at 5 mg/kg [2, 5] was 0% and the change in vivo at 5 mg/kg [2, 6] was -20%.

Compound `CCCCNC1CCCC(Oc2cccc(Cl)c2)C1O` (stereo not shown) [compound 10] has an inhibition at 30 mg/kg [1] of 92%, an ED50 (mice) of 80 mg/kg and a change in vivo at 5 mg/kg [2, 4] of 0%. It also gave a change in vivo at 5 mg/kg [2, 5] of 0% and a change in vivo at 5 mg/kg [2, 6] of 0%.

`CC(C)CCNC1CCCC(Oc2ccc(Cl)cc2)C1O` (stereo not shown) [compound 4] showed an inhibition at 10 mg/kg [1] of 59%, an ED50 (mice) of 25 mg/kg and a change in vivo at 5 mg/kg [2, 4] of 0%. For the same compound, the change in vivo at 5 mg/kg [2, 5] was 0% and the change in vivo at 5 mg/kg [2, 6] was 0%.

With `CC(Cc1ccccc1)NC1CCCC(Oc2ccccc2)C1O` (stereo not shown) [compound 11] the inhibition at 40 mg/kg [1] was 118%, the change in vivo at 5 mg/kg [2, 4] was 0% and the change in vivo at 5 mg/kg [2, 5] was -10%. It also gave a change in vivo at 5 mg/kg [2, 6] of -60%.

Compound `CC(C)CNC1CCCC(Oc2ccc(Cl)cc2)C1O` (stereo not shown) [compound 3] has an inhibition at 10 mg/kg [1] of 30%, an ED50 (mice) of 100 mg/kg and a change in vivo at 5 mg/kg [2, 4] of 0%. It also gave a change in vivo at 5 mg/kg [2, 5] of 0% and a change in vivo at 5 mg/kg [2, 6] of 0%.

`CC(Cc1ccccc1)NC1CCCC(Oc2ccc(F)cc2)C1O` (stereo not shown) [compound 12] showed an inhibition at 20 mg/kg [1] of 120%, an ED50 (mice) of less than 50 mg/kg and a change in vivo at 5 mg/kg [2, 4] of 35%. It also gave a change in vivo at 5 mg/kg [2, 5] of 0% and a change in vivo at 5 mg/kg [2, 6] of -35%.

With `CC(C)NC1CCCC(Oc2ccc(Cl)cc2)C1O` (stereo not shown) [compound 2] the inhibition at 40 mg/kg [1] was 42%, the ED50 (mice) was 300 mg/kg and the change in vivo at 5 mg/kg [2, 4] was 30%. It also gave a change in vivo at 5 mg/kg [2, 5] of -15% and a change in vivo at 5 mg/kg [2, 6] of -20%.

`CC(C)NC1CCCC(Oc2cccc(Cl)c2)C1O` (stereo not shown) [Compound No. 1, 2-hydroxy-3-(3'-chloro-phenoxy)-N-isopropyl-cyclohexylamine] showed an inhibition at 40 mg/kg [1] of 99%, an LD50 [3] of 588 mg/kg and an ED50 (mice) of 100 mg/kg. The change in vivo at 5 mg/kg [2, 4] was 0%, the change in vivo at 5 mg/kg [2, 5] was 0% and the change in vivo at 5 mg/kg [2, 6] was 0%.

In the case of `CC(C)NCC(O)COc1cccc2ccccc12` (stereo not shown) [PROPRANOLOL, propranolol, reference compound], the change in vivo at 5 mg/kg ([2]; iv, read-out: Cardiovascular parameters, H (hypotension)) is reported as -100%, the change in vivo at 5 mg/kg ([2]; iv, read-out: Cardiovascular parameters, I^+ (positive inotropism)) is reported as -98% and the change in vivo at 5 mg/kg ([2]; iv, read-out: Cardiovascular parameters, T (tachycardia)) is reported as -92%.

Compound `CC(C)NC1CCCC(Oc2ccccc2)C1O` (stereo not shown) [compound 5] has an inhibition at 40 mg/kg [1] of 26%, a change in vivo at 5 mg/kg [2, 4] of 0% and a change in vivo at 5 mg/kg [2, 5] of 25%. For the same compound, the change in vivo at 5 mg/kg [2, 6] was -39%.

With `CC(C)CCNC1CCCC(Oc2cccc(C(F)(F)F)c2)C1O` (stereo not shown) [compound 7] the inhibition at 30 mg/kg [1] was 93%, the ED50 (mice) was 30 mg/kg and the change in vivo at 5 mg/kg [2, 4] was -50%. It also gave a change in vivo at 5 mg/kg [2, 5] of -38% and a change in vivo at 5 mg/kg [2, 6] of -50%.

Reference: patent publication US4008329A, “Substituted cyclohexanes, pharmaceutical compositions containing them and method of treatment involving their use” (priority 1974, dated 1977)
